Reference: US5726162A (priority 1996, dated 1998)

tested on: Magnaporthe grisea (Pyricularia oryzae); test: whole plant or invertebrate; format: in vivo, Magnaporthe grisea (Pyricularia oryzae) on M201 rice plants; settings: Pyricularia oryzae, 144 h, read-out: % Control RB

Structure (SMILES)	pest or weed control at 200 ppm [%]
CC#CCN1N=C(c2ccc3ccccc3c2)CCC1=O [Compound 135]	0
CCC#CCN1N=C(c2ccc([N+](=O)[O-])cc2)CCC1=O [Compound 65]	0
O=CC#CCN1N=C(c2ccc(Cl)cc2)CCC1=O [Compound 88, 6-(4-chlorophenyl)-2-(4-aldehydo-2'-butynyl)-4,5-dihydropyridazinone]	0
CCC#CCN1N=C(c2ccc(Cl)cc2)C(F)(F)C(F)(F)C1=O [Compound 106]	0
CCC#CCSc1ccc(-c2ccc(Cl)cc2)nn1 [Compound 152, 6-(4-chlorophenyl)-3-(2-pentyn-1-thio)-pyridazine]	0
O=C1CCC(c2ccc(Cl)cc2)=NN1CC#CC1CCCCC1 [Compound 94]	0
CC#CCN1N=C(C=Cc2ccc(Cl)cc2)CCC1=O [Compound 24]	0
CCC#CCN1N=C2c3ccc(Cl)cc3CC2CC1=O (stereo not shown) [Compound 143, 7-chloro-2,4,4a,5-tetrahydro-2-(2-pentyn-1-yl)-indeno[1,2-c]-pyridazin-3-one]	99
CC#CCN1N=C(c2ccncc2)CCC1=O [Compound 133]	0
CCC#CCN1N=C(c2ccc(Cl)cc2)CC=C1OC [Compound 158, 6-(4-chlorophenyl)-3-methoxy-2-(2'-pentyn-1-yl)-2,5-dihydropyridazine]	0

tested on: fungal mycelium; test: organism not typed; format: cell-based; settings: read-out: % growth inhibition

Structure (SMILES)	inhibition at 1 ppm [%]	inhibition at 10 ppm [%]	inhibition at 100 ppm [%]	inhibition at 50 ppm [%]	inhibition at 200 ppm [%]	inhibition at 5 ppm [%]
CCC#CCN1N=C(CCc2ccc(Cl)cc2)CCC1=O [Compound 206, 6-(4-chlorophenethyl)-2-(2'-pentynyl)-4,5-dihydropyridazinone]	14.3	–	–	–	–	–
CCC#CCn1nc2c(cc1=O)CCc1cc(Cl)ccc1-2 [Compound 202, 5 6-dihydro-8-chlorobenzo[h]cinnolin-3-(2'-pentynyl)-one]	–	100	–	–	–	–
Cc1cc(C)n(C(=O)CN2N=C(c3ccc(Cl)cc3)CCC2=O)n1 [Compound 237, 6-(4-chlorophenyl)-2-(3,5-dimethyl-1-pyrazoylmethylene)-4,5-dihydropyridazinone]	–	–	58	–	–	–
CCC#CCN1N=C(c2ccccc2C)CCC1=O [Compound 210, 6-(2-methylphenyl)-2-(2'-pentynyl)-4,5-dihydropyridazinone]	–	–	–	35	–	–
CCC#CCN1N=C(c2ccc([N+](=O)[O-])cc2)CCC1=O [Compound 65]	–	–	–	84	–	–
CCC#CCN1N=C(c2cnc3ccccc3n2)CCC1=O [Compound 230, 6-(2-quinoxaline)-2-(2'-pentynyl)-4,5-dihydropyridazinone]	–	30	–	–	–	–
O=CC#CCN1N=C(c2ccc(Cl)cc2)CCC1=O [Compound 88, 6-(4-chlorophenyl)-2-(4-aldehydo-2'-butynyl)-4,5-dihydropyridazinone]	–	–	80	–	–	–
CCC#CCN1N=C(c2ccccc2F)CCC1=O [Compound 209, 6-(2-fluorophenyl)-2-(2'-pentynyl)-4,5-dihydropyridazinone]	–	–	–	85.7	–	–
CC#CCN1N=C(c2ccc(Cl)cc2)COC1=O [Compound 163]	–	12.7	–	–	–	–
CCC#CCN1N=C(c2ccc(Cl)cc2)C(F)(F)C(F)(F)C1=O [Compound 106]	–	–	–	81	–	–
CCC#CCN1N=C(c2cc(F)cc(F)c2)CCC1=O [Compound 98]	–	40	–	–	–	–
CCC#CCSc1ccc(-c2ccc(Cl)cc2)nn1 [Compound 152, 6-(4-chlorophenyl)-3-(2-pentyn-1-thio)-pyridazine]	–	18.2	–	–	–	–
O=C(CN1N=C(c2ccc(Cl)cc2)CCC1=O)NN=Cc1cc(Cl)cc(Cl)c1O [Compound 240, 6-(4-chlorophenyl)-2-[N-acetylhydrazide-(N'-3,5-dichloro-2-hydroxy-phenylhydrazone)]-4,5-dihydropyridazinone]	–	–	14	–	–	–
O=C1CCC(c2ccc(Cl)cc2)=NN1CC#CC1CCCCC1 [Compound 94]	–	22.2	–	–	–	–
CCC#CCN1N=C(c2cccc(OC)c2)CCC1=O [Compound 219, 6-(3-methoxyphenyl)-2-(2'-pentynyl)-4,5-dihydropyridazinone]	–	–	–	100	–	–
CC#CCN1N=C(C=Cc2ccc(Cl)cc2)CCC1=O [Compound 24]	–	–	–	–	6.1	–
CCC#CCN1N=C2c3ccc(Cl)cc3CC2CC1=O (stereo not shown) [Compound 143, 7-chloro-2,4,4a,5-tetrahydro-2-(2-pentyn-1-yl)-indeno[1,2-c]-pyridazin-3-one]	100	–	–	–	–	–
CC#CCN1N=C(c2ccncc2)CCC1=O [Compound 133]	–	–	–	–	67.4	–
CCC#CCN1N=C(c2cccc(F)c2)CCC1=O [Compound 214, 6-(3-fluorophenyl)-2-(2'-pentynyl)-4,5-dihydropyridazinone]	–	–	–	100	–	–
CCC#CCN1N=C(c2cccc(C)c2)CCC1=O [Compound 215, 6-(3-methylphenyl)-2-(2'-pentynyl)-4,5-dihydropyridazinone]	–	–	–	100	–	–
CCC#CCN1N=C(c2ccc(C)c(F)c2)CCC1=O [Compound 225, 6-(3-fluoro-4-methylphenyl)-2-(2'-pentynyl)-4,5-dihydropyridazinone]	–	–	–	100	–	–
CCC#CCn1nc2c(cc1=O)-c1cccc3cccc-2c13 [Compound 232, 8-(2'-pentynyl)-acenaphtho[1,2c]pyridazin-9-one]	–	–	–	–	–	45.5
CCC#CCN1N=C(c2ccc(Cl)cc2)CC=C1OC [Compound 158, 6-(4-chlorophenyl)-3-methoxy-2-(2'-pentyn-1-yl)-2,5-dihydropyridazine]	–	100	–	–	–	–
Cc1ccc(Cn2nc(-c3ccc(Cl)cc3)ccc2=O)o1 [Compound 204, 6-(4-chlorophenyl)-2-(5-methyl-2-furanylmethylene)-pyridazinone]	–	100	–	–	–	–
CCC#CCn1nc(-c2csc3ccccc23)ccc1=O [Compound 236, 6-(3-thianaphthene)-2-(2'-pentynyl)-pyridazinone]	–	–	100	–	–	–
CCC#CCN1N=C(c2ccccc2)COC1=O [Compound 164]	–	–	14.2	–	–	–
NNC(=O)CN1N=C(c2ccc(Cl)cc2)CCC1=O [Compound 233, 6-(4-chlorophenyl)-2-(acetyl hydrazide)4,5-dihydropyridazinone]	–	–	21	–	–	–

Structure (SMILES)	inhibition at 1 ppm [%]	inhibition at 10 ppm [%]	inhibition at 100 ppm [%]	inhibition at 50 ppm [%]	inhibition at 200 ppm [%]	inhibition at 5 ppm [%]
CCC#CCN1N=C(c2ccccc2Cl)CCC1=O [Compound 211, 6-(2-chlorophenyl)-2-(2'-pentynyl)-4,5-dihydropyridazinone]	–	–	–	30	–	–
O=C1CCC(c2ccc(Cl)cc2)=NN1Cc1nn(CC#CI)c(=O)o1 [Compound 241]	–	–	100	–	–	–
CCC#CCN1N=C(c2ccccc2OC)CCC1=O [Compound 212, 6-(2-methoxyphenyl)-2-(2'-pentynyl)-4,5-dihydropyridazinone]	–	–	–	35	–	–
CCC#CCn1nc(-c2cc(F)cc(F)c2)ccc1=O [Compound 126]	–	100	–	–	–	–
CCC#CCN1N=C(c2ccc(F)c(F)c2)CCC1=O [Compound 224, 6-(3,4-difluorophenyl)-2-(2'-pentynyl)-4,5-dihydropyridazinone]	–	–	–	100	–	–
CC(=O)CC(C)=NNC(=O)CN1N=C(c2ccc(Cl)cc2)CCC1=O [Compound 234, 6-(4-chlorophenyl)-2-[N-acetylhydrazide-(N'-2,4-pentanedione-hydrazone)]-4,5-dihydropyridazinone]	–	–	42	–	–	–
CCC#CCN1N=C(c2csc3ccccc23)CCC1=O [Compound 235, 6-(3-thianaphthene)-2-(2'-pentynyl)-4,5-dihydropyridazinone]	–	–	100	–	–	–
CCC#CCN1N=C(c2ccc(Cl)cc2)COC1=O [Compound 162, 2-(4-chlorophenyl)-3-(2-pentyn-1-yl)-3H, 6H-1,3,4-oxadiazin-2-one]	–	96.9	–	–	–	–
CCC#CCn1nc(CN2N=C(c3ccc(Cl)cc3)CCC2=O)oc1=O [Compound 239]	–	–	100	–	–	–
CCC#CCN1N=C(c2cccc(Cl)c2)CCC1=O [Compound 216, 6-(3-chlorophenyl)-2-(2'-pentynyl)-4,5-dihydropyridazinone]	–	–	–	100	–	–
CCC#CCN1N=C(c2ccc(Cl)cc2)CSC1=O [Compound 165, 5-(4-chlorophenyl)-3-(2-pentyn-1-yl)-3H,6H-1,3,4-thiadiazin-2-one]	–	–	100	–	–	–
CCC#CCn1nc(-c2ccccc2)c(-c2ccccc2)c(C#N)c1=O [Compound 228, 5,6-diphenyl-4-cyano-2-(2'-pentynyl)-pyridazinone]	–	50	–	–	–	–
CCC#CCN1N=C(c2ccc(C)c(OC)c2)CCC1=O [Compound 220, 6-(3-methoxy-4-methylphenyl)-2-(2'-pentynyl)-4,5-dihydropyridazinone]	–	–	–	100	–	–
CCC#CCN1N=C(c2cccc([N+](=O)[O-])c2)CCC1=O [Compound 218, 6-(3-nitrophenyl)-2-(2'-pentynyl)-4,5-dihydropyridazinone]	–	–	–	100	–	–
CCC#CC(C)N1N=C(c2ccc(Cl)cc2)CCC1=O (stereo not shown) [Compound 208, 6-(4-chlorophenyl)-2-(1-methyl-2-pentynyl)-4,5-dihydropyridazinone]	28.6	–	–	–	–	–
CCC#CCN1N=C(c2ccc3c(c2)CCc2ccccc2-3)CCC1=O [Compound 227, 6-(9,10-dihydro-2-phenanthrene)-2-(2'-pentynyl)-4,5-dihydropyridazinone]	–	30	–	–	–	–
CCC#CCN1N=C(c2ccc(Br)c(F)c2)CCC1=O [Compound 97]	100	–	–	–	–	–
CN1N=C(c2ccc(Cl)cc2)CCC1=O [Compound 201, 6-(4-chlorophenyl)-2-methyl-4,5-dihydropyridazinone]	–	10	–	–	–	–
CCC#CCN1N=C2c3ccc(Cl)cc3CCC2CC1=O (stereo not shown) [Compound 200, 4,4a,5,6-tetrahydro-8-chloro[h]-cinnolin-2-(2'-pentynyl)-3-one]	–	100	–	–	–	–
CCC#CCN1N=C(c2ccc3c(c2)OCO3)CCC1=O [Compound 207, 6-(3,4-methylenedioxyphenyl)-2-(2'-pentynyl)-4,5-dihydropyridazinone]	100	–	–	–	–	–
CCC#CCC1CC(c2ccc(Cl)cc2)=NN(C)C1=O (stereo not shown) [Compound 203, 6-(4-chlorophenyl)-4-(2'-pentynyl)-2-methyl-4,5-dihydropyridazinone]	–	100	–	–	–	–
CCC#CCN1N=C(c2ccc(OC)c(C)c2)CCC1=O [Compound 226]	–	–	–	100	–	–
Cc1noc(C)c1CN1N=C(c2ccc(Cl)cc2)CCC1=O [Compound 231, 6-(4-chlorophenyl)-2-(3,5-dimethyl-4-isoxolylmethyl)-4,5-dihydropyridazinone]	–	36	–	–	–	–
CCC#CCN1N=C(c2cccc(C(F)(F)F)c2)CCC1=O [Compound 213, 6-(3-trifluoromethylphenyl)-2-(2'-pentynyl)-4,5-dihydropyridazinone]	–	–	–	100	–	–
O=C1CCC(c2ccc(Cl)cc2)=NN1Cc1n[nH]c(=O)o1 [Compound 238]	–	–	31.6	–	–	–
CCC#CCN1N=C(C=Cc2ccc(Cl)cc2)CCC1=O [Compound 205, 6-(4-chlorostyryl)-2-(2'-pentynyl)-4,5-dihydropyridazinone]	–	100	–	–	–	–
CCC#CCN1N=C(c2cccc(C#N)c2)CCC1=O [Compound 217, 6-(3-cyanophenyl)-2-(2'-pentynyl)-4,5-dihydropyridazinone]	–	–	–	100	–	–
